Like-named read-outs stand apart in the source and are kept apart here.
Assay: Resmetirom exposure parameters by dose, quartile and body weight
Type: in vivo, human
Conditions: for AUC / Cmax: human, in vivo, oral
Method: Various body weight cutoffs for dosing were evaluated.

**Q.** What does the source list for `CC(C)c1cc(Oc2c(Cl)cc(-n3nc(C#N)c(=O)[nH]c3=O)cc2Cl)n[nH]c1=O` [Resmetirom, 2-(3,5-dichloro-4-((5-isopropyl-6-oxo-1,6-dihydropyridazin-3-yl)oxy)phenyl)-3,5-dioxo-2,3,4,5-tetrahydro-1,2,4-triazine-6-carbonitrile]?
**A.** Cmin,ss Geometric Mean (80 mg, 80-<90 kg): 20.7 ng/mL; Cmin,ss Mean (80 mg, 80-<90 kg): 55.9 ng/mL; Cmin,ss Median (80 mg, 80-<90 kg): 18.4 ng/mL; t1/2α Geometric Mean (80 mg, 80-<90 kg): 1.21 h; t1/2α Mean (80 mg, 80-<90 kg): 1.34 h; t1/2α Median (80 mg, 80-<90 kg): 1.24 h; t1/2β Geometric Mean (80 mg, 80-<90 kg): 5.15 h; t1/2β Mean (80 mg, 80-<90 kg): 6.04 h; t1/2β Median (80 mg, 80-<90 kg): 4.41 h; Cmin,ss Geometric Mean (80 mg, 90-<100 kg): 14.2 ng/mL; Cmin,ss Mean (80 mg, 90-<100 kg): 52.0 ng/mL; Cmin,ss Median (80 mg, 90-<100 kg): 12.0 ng/mL; t1/2α Geometric Mean (80 mg, 90-<100 kg): 1.10 h; t1/2α Mean (80 mg, 90-<100 kg): 1.21 h; t1/2α Median (80 mg, 90-<100 kg): 1.02 h; t1/2β Geometric Mean (80 mg, 90-<100 kg): 4.81 h; t1/2β Mean (80 mg, 90-<100 kg): 5.50 h; t1/2β Median (80 mg, 90-<100 kg): 4.29 h; Cmin,ss Geometric Mean (80 mg, 100-<110 kg): 13.2 ng/mL; Cmin,ss Mean (80 mg, 100-<110 kg): 37.3 ng/mL; Cmin,ss Median (80 mg, 100-<110 kg): 14.1 ng/mL; t1/2α Geometric Mean (80 mg, 100-<110 kg): 1.12 h; t1/2α Mean (80 mg, 100-<110 kg): 1.26 h; t1/2α Median (80 mg, 100-<110 kg): 1.12 h; t1/2β Geometric Mean (80 mg, 100-<110 kg): 4.99 h; t1/2β Mean (80 mg, 100-<110 kg): 5.86 h; t1/2β Median (80 mg, 100-<110 kg): 4.50 h; Cmin,ss Geometric Mean (80 mg, <80 kg): 26.7 ng/mL; Cmin,ss Mean (80 mg, <80 kg): 72.8 ng/mL; Cmin,ss Median (80 mg, <80 kg): 25.5 ng/mL; t1/2α Geometric Mean (80 mg, <80 kg): 1.13 h; t1/2α Mean (80 mg, <80 kg): 1.27 h; t1/2α Median (80 mg, <80 kg): 1.15 h; t1/2β Geometric Mean (80 mg, <80 kg): 5.03 h; t1/2β Mean (80 mg, <80 kg): 5.44 h; t1/2β Median (80 mg, <80 kg): 4.53 h; Percentage of Cave,ss in quartile (80 mg; Q1: [20-155) ng/mL): 31%; Percentage of Cave,ss in quartile (80 mg; Q2: [155-219) ng/mL): 31%; Percentage of Cave,ss in quartile (80 mg; Q3: [219-321) ng/mL): 22%; Percentage of Cave,ss in quartile (80 mg, Q4: [321-1326] ng/mL): 17%; Cmin,ss Geometric Mean (80 mg, ≥110 kg): 11.5 ng/mL; Cmin,ss Mean (80 mg, ≥110 kg): 26.0 ng/mL; Cmin,ss Median (80 mg, ≥110 kg): 9.77 ng/mL; t1/2α Geometric Mean (80 mg, ≥110 kg): 1.16 h; t1/2α Mean (80 mg, ≥110 kg): 1.30 h; t1/2α Median (80 mg, ≥110 kg): 1.11 h; t1/2β Geometric Mean (80 mg, ≥110 kg): 4.94 h; t1/2β Mean (80 mg, ≥110 kg): 5.30 h; t1/2β Median (80 mg, ≥110 kg): 4.45 h; Cmin,ss Geometric Mean (100 mg, 80-<90 kg): 32.0 ng/mL; Cmin,ss Mean (100 mg, 80-<90 kg): 100 ng/mL; Cmin,ss Median (100 mg, 80-<90 kg): 22.2 ng/mL; t1/2α Geometric Mean (100 mg, 80-<90 kg): 1.16 h; t1/2α Mean (100 mg, 80-<90 kg): 1.30 h; t1/2α Median (100 mg, 80-<90 kg): 1.08 h; t1/2β Geometric Mean (100 mg, 80-<90 kg): 5.58 h; t1/2β Mean (100 mg, 80-<90 kg): 7.13 h; t1/2β Median (100 mg, 80-<90 kg): 4.43 h; Cmin,ss Geometric Mean (100 mg, 90-<100 kg): 41.7 ng/mL; Cmin,ss Mean (100 mg, 90-<100 kg): 113 ng/mL; Cmin,ss Median (100 mg, 90-<100 kg): 51.0 ng/mL; t1/2α Geometric Mean (100 mg, 90-<100 kg): 1.39 h; t1/2α Mean (100 mg, 90-<100 kg): 1.54 h; t1/2α Median (100 mg, 90-<100 kg): 1.37 h; t1/2β Geometric Mean (100 mg, 90-<100 kg): 6.21 h; t1/2β Mean (100 mg, 90-<100 kg): 8.49 h; t1/2β Median (100 mg, 90-<100 kg): 5.29 h; Cmin,ss Geometric Mean (100 mg, 100-<110 kg): 26.5 ng/mL; Cmin,ss Mean (100 mg, 100-<110 kg): 65.4 ng/mL; Cmin,ss Median (100 mg, 100-<110 kg): 22.1 ng/mL; t1/2α Geometric Mean (100 mg, 100-<110 kg): 1.14 h; t1/2α Mean (100 mg, 100-<110 kg): 1.30 h; t1/2α Median (100 mg, 100-<110 kg): 1.34 h; t1/2β Geometric Mean (100 mg, 100-<110 kg): 5.55 h; t1/2β Mean (100 mg, 100-<110 kg): 7.08 h; t1/2β Median (100 mg, 100-<110 kg): 4.65 h; Cmin,ss Geometric Mean (100 mg, <80 kg): 31.4 ng/mL; Cmin,ss Mean (100 mg, <80 kg): 119 ng/mL; Cmin,ss Median (100 mg, <80 kg): 29.7 ng/mL; t1/2α Geometric Mean (100 mg, <80 kg): 1.26 h; t1/2α Mean (100 mg, <80 kg): 1.47 h; t1/2α Median (100 mg, <80 kg): 1.44 h; t1/2β Geometric Mean (100 mg, <80 kg): 5.36 h; t1/2β Mean (100 mg, <80 kg): 6.85 h; t1/2β Median (100 mg, <80 kg): 4.41 h; Percentage of Cave,ss in quartile (100 mg; Q1: [20-155) ng/mL): 19%; Percentage of Cave,ss in quartile (100 mg; Q2: [155-219) ng/mL): 19%; Percentage of Cave,ss in quartile (100 mg; Q3: [219-321) ng/mL): 28%; Percentage of Cave,ss in quartile (100 mg, Q4: [321-1326] ng/mL): 34%; Cmin,ss Geometric Mean (100 mg, ≥110 kg): 16.2 ng/mL; Cmin,ss Mean (100 mg, ≥110 kg): 43.4 ng/mL; Cmin,ss Median (100 mg, ≥110 kg): 12.8 ng/mL; t1/2α Geometric Mean (100 mg, ≥110 kg): 1.24 h; t1/2α Mean (100 mg, ≥110 kg): 1.38 h; t1/2α Median (100 mg, ≥110 kg): 1.30 h; t1/2β Geometric Mean (100 mg, ≥110 kg): 5.32 h; t1/2β Mean (100 mg, ≥110 kg): 6.33 h; t1/2β Median (100 mg, ≥110 kg): 4.50 h; AUC (80 mg, 80-<90 kg, read-out: AUCtau,ss Geometric Mean): 6010 ng·h/mL; AUC (80 mg, 80-<90 kg, read-out: AUCtau,ss Mean): 6660 ng·h/mL; AUC (80 mg, 80-<90 kg, read-out: AUCtau,ss Median): 5750 ng·h/mL; Cmax (80 mg, 80-<90 kg, read-out: Cmax,ss Geometric Mean): 816 ng/mL; Cmax (80 mg, 80-<90 kg, read-out: Cmax,ss Mean): 869 ng/mL; Cmax (80 mg, 80-<90 kg, read-out: Cmax,ss Median): 870 ng/mL; AUC (80 mg, 90-<100 kg, read-out: AUCtau,ss Geometric Mean): 5060 ng·h/mL; AUC (80 mg, 90-<100 kg, read-out: AUCtau,ss Mean): 5790 ng·h/mL; AUC (80 mg, 90-<100 kg, read-out: AUCtau,ss Median): 5030 ng·h/mL; Cmax (80 mg, 90-<100 kg, read-out: Cmax,ss Geometric Mean): 745 ng/mL; Cmax (80 mg, 90-<100 kg, read-out: Cmax,ss Mean): 789 ng/mL; Cmax (80 mg, 90-<100 kg, read-out: Cmax,ss Median): 795 ng/mL; AUC (80 mg, 100-<110 kg, read-out: AUCtau,ss Geometric Mean): 4370 ng·h/mL; AUC (80 mg, 100-<110 kg, read-out: AUCtau,ss Mean): 4740 ng·h/mL; AUC (80 mg, 100-<110 kg, read-out: AUCtau,ss Median): 4400 ng·h/mL; Cmax (80 mg, 100-<110 kg, read-out: Cmax,ss Geometric Mean): 624 ng/mL; Cmax (80 mg, 100-<110 kg, read-out: Cmax,ss Mean): 654 ng/mL; Cmax (80 mg, 100-<110 kg, read-out: Cmax,ss Median): 644 ng/mL; AUC (80 mg, <80 kg, read-out: AUCtau,ss Geometric Mean): 8080 ng·h/mL; AUC (80 mg, <80 kg, read-out: AUCtau,ss Mean): 9230 ng·h/mL; AUC (80 mg, <80 kg, read-out: AUCtau,ss Median): 8180 ng·h/mL; Cmax (80 mg, <80 kg, read-out: Cmax,ss Geometric Mean): 1120 ng/mL; Cmax (80 mg, <80 kg, read-out: Cmax,ss Mean): 1210 ng/mL; Cmax (80 mg, <80 kg, read-out: Cmax,ss Median): 1140 ng/mL; AUC (80 mg, ≥110 kg, read-out: AUCtau,ss Geometric Mean): 3470 ng·h/mL; AUC (80 mg, ≥110 kg, read-out: AUCtau,ss Mean): 3750 ng·h/mL; AUC (80 mg, ≥110 kg, read-out: AUCtau,ss Median): 3550 ng·h/mL; Cmax (80 mg, ≥110 kg, read-out: Cmax,ss Geometric Mean): 489 ng/mL; Cmax (80 mg, ≥110 kg, read-out: Cmax,ss Mean): 520 ng/mL; Cmax (80 mg, ≥110 kg, read-out: Cmax,ss Median): 504 ng/mL; AUC (100 mg, 80-<90 kg, read-out: AUCtau,ss Geometric Mean): 8550 ng·h/mL; AUC (100 mg, 80-<90 kg, read-out: AUCtau,ss Mean): 9660 ng·h/mL; AUC (100 mg, 80-<90 kg, read-out: AUCtau,ss Median): 7550 ng·h/mL; Cmax (100 mg, 80-<90 kg, read-out: Cmax,ss Geometric Mean): 1160 ng/mL; Cmax (100 mg, 80-<90 kg, read-out: Cmax,ss Mean): 1220 ng/mL; Cmax (100 mg, 80-<90 kg, read-out: Cmax,ss Median): 1200 ng/mL; AUC (100 mg, 90-<100 kg, read-out: AUCtau,ss Geometric Mean): 7990 ng·h/mL; AUC (100 mg, 90-<100 kg, read-out: AUCtau,ss Mean): 9010 ng·h/mL; AUC (100 mg, 90-<100 kg, read-out: AUCtau,ss Median): 7600 ng·h/mL; Cmax (100 mg, 90-<100 kg, read-out: Cmax,ss Geometric Mean): 954 ng/mL; Cmax (100 mg, 90-<100 kg, read-out: Cmax,ss Mean): 1010 ng/mL; Cmax (100 mg, 90-<100 kg, read-out: Cmax,ss Median): 1060 ng/mL; AUC (100 mg, 100-<110 kg, read-out: AUCtau,ss Geometric Mean): 6690 ng·h/mL; AUC (100 mg, 100-<110 kg, read-out: AUCtau,ss Mean): 7430 ng·h/mL; AUC (100 mg, 100-<110 kg, read-out: AUCtau,ss Median): 6250 ng·h/mL; Cmax (100 mg, 100-<110 kg, read-out: Cmax,ss Geometric Mean): 905 ng/mL; Cmax (100 mg, 100-<110 kg, read-out: Cmax,ss Mean): 958 ng/mL; Cmax (100 mg, 100-<110 kg, read-out: Cmax,ss Median): 966 ng/mL; AUC (100 mg, <80 kg, read-out: AUCtau,ss Geometric Mean): 8680 ng·h/mL; AUC (100 mg, <80 kg, read-out: AUCtau,ss Mean): 10800 ng·h/mL; AUC (100 mg, <80 kg, read-out: AUCtau,ss Median): 9610 ng·h/mL; Cmax (100 mg, <80 kg, read-out: Cmax,ss Geometric Mean): 1120 ng/mL; Cmax (100 mg, <80 kg, read-out: Cmax,ss Mean): 1310 ng/mL; Cmax (100 mg, <80 kg, read-out: Cmax,ss Median): 1370 ng/mL; AUC (100 mg, ≥110 kg, read-out: AUCtau,ss Geometric Mean): 4330 ng·h/mL; AUC (100 mg, ≥110 kg, read-out: AUCtau,ss Mean): 4940 ng·h/mL; AUC (100 mg, ≥110 kg, read-out: AUCtau,ss Median): 3900 ng·h/mL; Cmax (100 mg, ≥110 kg, read-out: Cmax,ss Geometric Mean): 575 ng/mL; Cmax (100 mg, ≥110 kg, read-out: Cmax,ss Mean): 642 ng/mL; Cmax (100 mg, ≥110 kg, read-out: Cmax,ss Median): 647 ng/mL

Source: patent publication US12377104B1, “Methods for treating a fatty liver disease” (Madrigal Pharmaceuticals, Inc., priority 2024, dated 2025)
